Source: PubChem BioAssay AID488823 (NMMLSC, 2010)

System: S. cerevisiae LAP4-GFP strain, flow cytometry fluorescence
Experiment: LAP4-GFP modulation potency, analog picks, SAR follow-up, cell-based, cherry pick 3, flow cytometry (AID 488823)

EC50: 5.38 µM
Compound: Cc1ccc2c(Cl)cc(Cl)c(O)c2n1
